Experiment: in vitro
Details: human, hela cells, % viability

SMILES | viability at 28.5 h, 10 µM
CC1CCN(c2ccc(C(C)NC(=O)Cn3cccn3)cc2)CC1 (stereo not drawn) [CBK281725] | 86.1%
Fc1ccc(COc2ccc(Cl)cc2CNCc2ccccn2)cc1 [CBK269899C] | 85.5%
Nc1ncc(-c2cncnc2)nc1N1CCOCC1 [CBK063422] | 93.7%
Cc1ccccc1Cc1cccc(C2CCN(CC(=O)Nc3nccs3)CC2)n1 [CBK286089] | 97.6%
CN1CCC(N2CCN(C(=O)NC3CCc4ccccc43)CC2)CC1 (stereo not drawn) [CBK156110] | 106%
COc1cccc(CCNC2CC(=O)N(c3ccc(NC(C)=O)cc3)C2=O)c1 (stereo not drawn) [CBK265233] | 109%
COCCCNC(=O)c1cnn2c(C)c(Cc3ccccc3Br)c(C)nc12 [CBK071628] | 101%
Cc1ccc(C)c(CSC2CCN(C3CCOCC3)C2=O)c1 (stereo not drawn) [CBK304865] | 103%
COc1ccc(CN2/C(=N/c3ccccc3)S[C@H]3[C@@H]2[C@@H](O)[C@H](O)C[C@@H]3C(N)=O)cc1 [CBK288941] | 102%
O=C(O)c1cccnc1SC1CC(=O)N(c2ccc(F)cc2)C1=O (stereo not drawn) [CBK265582] | 110%
O=C(NC1CCCCC1)c1ccc(-c2ccccc2)nc1NCCc1ccccn1 [CBK076553] | 101%
Cc1nc2c(c(=O)[nH]1)CCN(Cc1cccc(Oc3ccccc3)c1)C2 [CBK283989] | 81.9%
CC(=O)Nc1cc(C(=O)NCc2ccc(F)cc2)ccc1Sc1ccc(Cl)cc1 [CBK294468] | 96.2%
CC(=O)Nc1ccc(S(=O)(=O)N2CCC3(CC2)NC(=O)c2cc(-c4ccoc4)ccc2O3)cc1 [CBK115856] | 113%
Cc1cc(C)nc(N/N=C/c2cn(-c3ccccc3)nc2-c2ccc([N+](=O)[O-])cc2)n1 [CBK262864] | 90.5%
CCN(CC1CCOCC1)C(=O)Cn1c(C)cc(=O)c2ccccc21 [CBK307230] | 88.7%
CC1SC2(C(=O)Nc3ccccc32)N(c2ccc(F)cc2)C1=O (stereo not drawn) [CBK093463] | 96.8%
O=C(Cc1c[nH]c2ccccc12)N1CCCC1c1ccc(F)cc1 (stereo not drawn) [CBK297927] | 105%
Nc1ncc([C@@H]2O[C@H](CO)[C@H](O)C2O)c(=O)[nH]1 (stereo partly drawn) [CBK201205] | 78.1%
O=C(Cc1ccc(F)cc1Cl)N1CCC(O)(c2ccccn2)CC1 [CBK283755] | 98.1%
CCOC(=O)CN1CCCN(c2c(F)cc(C#N)cc2F)CC1 [CBK304148] | 86.9%
CN(C)CC1CCCCN1C(=O)[C@@H]1C[C@@H]2C=C[C@H]1C2 (stereo partly drawn) [CBK282086] | 105%

SMILES | viability at 28.5 h, 10 µM
COC(=O)c1c(NC(=S)NCCn2cc(Br)cn2)sc2c1CCC(C)C2 (stereo not drawn) [CBK266886] | 89.8%
OC(CN1CCC(O)(c2ccc(F)cc2)CC1)c1ccc(Cl)cc1 (stereo not drawn) [CBK283311] | 89.6%
O=C(O)c1ccc2c(c1)C1C=CCC1C(c1cccc([N+](=O)[O-])c1)N2 (stereo not drawn) [CBK287008] | 94.7%
C#CCNCc1ccc(O)cc1 [CBK013235C] | 87.4%
CCC(NC(=O)CCc1cccnc1)c1cn2cccnc2n1 (stereo not drawn) [CBK307247] | 81.7%
CCn1c2cc(C)sc2c2cnn(CC(=O)N(C)C)c(=O)c21 [CBK284173] | 85%
O=C(NC(C(=O)N/N=C/c1cccs1)c1n[nH]c(=O)c2ccccc12)c1ccccc1 (stereo not drawn) [CBK261250] | 98%
Nc1cc(-c2ccco2)nn(Cc2c(F)cccc2Cl)c1=O [CBK282881] | 86.1%
N#Cc1ccccc1Cn1ccc2c(N3CCNCC3)cccc21 [CBK200015C] | 102%
COc1ccc(-c2cnc3[nH]c(=O)n(CCN4CCOCC4)c3n2)cc1 [CBK064782] | 103%
CCSc1nc(-c2ccncc2)ccc1C#N [CBK288539] | 75.2%
O=C(NCCN1CCOCC1)C1CCCN(c2nc3c(-c4ccccc4)csc3c(=O)[nH]2)C1 (stereo not drawn) [CBK215509] | 106%
COc1ccc(OC)c(NC(=O)CN2CCN(c3ccccn3)CC2)c1 [CBK262978] | 83.7%
Cc1ccccc1C(=O)N1C[C@H]2NC(=O)c3ccccc3C(=O)[C@@]2(C)C1 [CBK285316] | 99.7%
CCOc1cc(C(c2c[nH]c3ccccc23)c2c[nH]c3ccccc23)ccc1OCC(=O)O [CBK264450] | 97.1%
COC(=O)c1ccc(NC(=O)COn2nnc3ccc([N+](=O)[O-])cc32)cc1 [CBK267106] | 94.3%
C(=C/c1ccccc1)/C=N/c1ccc2nc(-c3ccc(/N=C/C=C/c4ccccc4)cc3)[nH]c2c1 [CBK261656] | 87.9%
COc1ccc(CC(=O)Nc2ccc(Nc3ccccc3)cc2)cc1 [CBK263884] | 114%
Cc1cc(NC(=O)CS(=O)(=O)Cc2cccc(C(F)(F)F)c2)no1 [CBK304520] | 99.3%
CC(C)(C)c1cc(C(=O)Nc2ccncc2)n(Cc2ccc(Cl)cc2Cl)n1 [CBK107284] | 107%
N#Cc1ccccc1NC(=O)CSc1nc2cc(Cl)ccc2[nH]1 [CBK270019] | 99.4%
CC(C)NC(=O)CC[C@@H]1CNC(=O)[C@@H]2C[C@H](NC(=O)c3ccccc3)CN12 [CBK289002] | 90.9%

SMILES | viability at 28.5 h, 10 µM
O=C1CC(c2ccccc2)CC(NCc2ccccc2)=C1C(=S)Nc1ccccc1 (stereo not drawn) [CBK264491] | 104%
CCc1ccc(Oc2c[nH]nc2-c2ccc(OCc3cnn(-c4ccccc4)c3)cc2O)cc1 [CBK266233] | 91.4%
CN1CCC[C@H]1C(=O)Nc1cccc2cc[nH]c12 [CBK160098] | 104%
CC(Sc1ccccc1)C(=O)NCCCN1CCOCC1 (stereo not drawn) [CBK269214] | 106%
COCCNc1cc(-c2cccc3oc4ccccc4c23)ncn1 [CBK090794] | 101%
CS(=O)(=O)c1ccc(NC(=S)N2CCN(c3ccc(F)cc3)CC2)cc1 [CBK300507] | 95.3%
NC(=O)c1cccc(-c2cnc(N)c(N3CCC[C@@H]3CO)n2)c1 [CBK063458] | 99.5%
O=C(COC(=O)CN1C(=O)C(=O)c2ccccc21)Nc1cccc2ccccc12 [CBK263915] | 90.5%
O=S(=O)(Cc1ccc(Br)cc1F)c1ccccn1 [CBK019368] | 90.4%
CN1CC=C(/C=C/C2=Cc3ccccc3OC2)CC1 [CBK283857] | 89.1%
O=C(NCc1cccs1)C1(Cc2ccccc2-c2coc3ccccc23)CCOCC1 [CBK286310] | 108%
NC(=O)c1ccccc1NC(=O)C1CCC(C(=O)Nc2ccccc2C(N)=O)CC1 (stereo not drawn) [CBK268716] | 87.1%
O=C(COc1ccccc1)Nc1ccccc1N1CCNCC1 [CBK028279T] | 108%
Cc1ccc2c(c1)C(c1c[nH]c3ccccc13)(c1c[nH]c3ccccc13)C(=O)N2C [CBK266401] | 103%
O=C(NC1CCCOC1)c1cc(-c2ccc(F)cc2)no1 (stereo not drawn) [CBK283141] | 107%
Cc1cc(C)cc(N(CCC#N)C(=O)CSc2nnc[nH]2)c1 [CBK296955] | 101%
CC(C)COC(=O)N1CCC(C(=O)NC(c2ccc(Cl)cc2)c2cnccn2)CC1 (stereo not drawn) [CBK059668] | 99.2%
Cc1nc2ccc(C(=O)N(C)CCN3CCCCC3)cc2s1 [CBK281919] | 93.4%
CCNS(=O)(=O)C1CCN(c2cc(C#N)ccc2C(F)(F)F)C1 (stereo not drawn) [CBK305402] | 96.2%
Cc1c(C(=O)O)sc2nc(C=Cc3ccc(OCCC(C)C)cc3)[nH]c(=O)c12 [CBK297539] | 94%
O=C(O)C1CCN(Cc2cnnn2-c2ccccc2F)CC1 [CBK287197] | 82.1%
c1cnc(N2CCCC2)c(Sc2nc[nH]n2)n1 [CBK093737] | 102%

SMILES | viability at 28.5 h, 10 µM
Nc1ncc(-c2ccccc2CO)nc1N1CCN(CCO)CC1 [CBK063404] | 100%
CCC(Oc1ccc(C)cc1)C(=O)Nc1ccc(S(N)(=O)=O)cc1 (stereo not drawn) [CBK270036] | 90.5%
Cc1ccc(Nc2cc(-c3cccc4cccnc34)ncn2)cc1NS(C)(=O)=O [CBK091152] | 92.4%
N#Cc1c(NC(=S)NC(=O)c2ccc(-c3cccc([N+](=O)[O-])c3)o2)sc2c1CCCC2 [CBK268471] | 92%
O=C(NCc1ccc(Cl)cc1)c1cc(-c2ccc(F)cc2)nc2ccccc12 [CBK294451] | 111%
O=C(O)C1CC1(C(=O)O)C(=O)O (stereo not drawn) [CBK261009] | 103%
c1ccc(-c2cccc(-c3cc(N4CCN(CCN5CCCC5)CC4)ncn3)c2)cc1 [CBK091164] | 99.7%
Cc1c(OCCC2CCCCN2C)ccc2c(=O)cc(N3CCOCC3)oc12 (stereo not drawn) [CBK016644] | 91.8%
Cc1noc(NS(=O)(=O)c2ccc(NC(=O)CCN3C(=O)c4ccccc4C3=O)cc2)c1C [CBK264091] | 96.1%
O=C(NC1(C#Cc2cnc3ccccc3c2)CCCCC1)C1CCCO1 (stereo not drawn) [CBK283085] | 81.9%
c1ccc([C@@H]2CN(Cc3ccccn3)C[C@H]2c2cc[nH]n2)cc1 [CBK285162] | 105%
Cc1ccn(CCC(=O)NC(Cc2ccsc2)c2nccs2)n1 (stereo not drawn) [CBK285137] | 92.5%
Cc1nn(CC(=O)N(C)Cc2cnn(C)c2)c(=O)c2ccccc12 [CBK305701] | 103%
O=c1cc(CN2CCC(Oc3nccnc3OCc3ccc(Cl)c(Cl)c3)CC2)[nH]c(=O)[nH]1 [CBK153784] | 96.6%
Cc1ccn(CCNC(=O)c2cccc(N3CCCC3=O)c2)n1 [CBK282642] | 105%
C=CCn1c(SCC(=O)Nc2sc3c(c2C#N)CCC3)nc2scc(-c3ccccc3)c2c1=O [CBK264477] | 104%
O=C(CN1CCN(CCN2C(=O)c3cccc4cccc(c34)C2=O)CC1)c1ccc(F)cc1 [CBK263414B] | 94.5%
COC(=O)c1ccc(CC(C)C)nc1SC1=NCCCN1 [CBK005294C] | 94.1%
COc1ccc2[nH]cc(CCNC(=O)c3ccccn3)c2c1 [CBK115866] | 95.7%
CC1(C)CCCN(Cc2nnnn2-c2ccc(S(C)(=O)=O)cc2)C1 [CBK306181] | 91.7%
COc1cc(-c2ccc(Nc3cccnc3)nc2)cc(OC)c1OC [CBK037704] | 84.6%

— PMC12040169 (PLOS Biology, 2025)
